For two compounds, solubility results are on record in US11370897B2, “Curable composition comprising UV stabilizer” (Momentive Performance Materials Inc., priority 2019, dated 2022).

The data set in a line: Solubility tests of resorcinol products in alcoholic solvents. The class given is physicochemical. The conditions noted are these: organic solvent or mixture, thermodynamic from solid, 20° C., Table 11, by product ratio DBMR/BTMR/DTMR. Here is the method:
To determine the solubility of resorcinol products, the following procedure was used:
0.50 g of pre-dried product (45 min @75° C. in oven) was combined with 5.00 ml of solvent (4.03 g of 2-butanol or 4.60 g of 1-methoxy-2-propanol). The mixture was handled in an ultrasonic bath for 1 min and stored afterwards under constant climate (20° C.) for 24 h.
The overlying solution was transfused carefully with a pipette. The solid content of this solution was measured thermogravimetrically with a halogen moisture analyzer (Mettler Toledo). This test procedure was repeated three times.

The mark [1] stands for this setting: 1-methoxy-2-propanol, read-out: Solubility in 1-Methoxy-2-propanol.
The mark [2] stands for this setting: 2-butanol, read-out: Solubility in 2-butanol.

The structures appear in SMILES notation. Read-outs that look alike come from different tables or passages of the source. Where only a bound is given, the exact number is not on record here.

As a reminder, the solubility is the concentration that dissolves in the medium under given conditions. `Cc1cccc(C(=O)c2cc(C(=O)c3cccc(C)c3)c(O)c(C)c2O)c1` [DTMR, ditoluoylacyl-2-methyl resorcinol]: the solubility at 24 h by setting is: under setting [1], 15000 µg/mL; under setting [2], 1000 µg/mL.
In the same order, the values of `Cc1c(O)c(C(=O)c2ccccc2)cc(C(=O)c2ccccc2)c1O` [DBMR, dibenzoylacyl-2-methyl resorcinol] are 4000 µg/mL and less than 1000 µg/mL.
